Measured values from ChEMBL document CHEMBL1124819, “1,9-Alkano-bridged 2,3,4,5-tetrahydro-1H-3-benzazepines with affinity for the alpha 2-adrenoceptor and the 5-HT1A receptor” (J Med Chem, 1990).

Key:
[1] = biological target: T1, Adrenergic receptor alpha-2 (Rattus norvegicus, UniProt P22086+P19328+P22909); assay: Binding affinity against alpha-2 adrenergic receptor in rat cerebral cortical membrane using [3H]yohimbine as radioligand.; format: cell membranes
T1 sequence (P22086 whole entry): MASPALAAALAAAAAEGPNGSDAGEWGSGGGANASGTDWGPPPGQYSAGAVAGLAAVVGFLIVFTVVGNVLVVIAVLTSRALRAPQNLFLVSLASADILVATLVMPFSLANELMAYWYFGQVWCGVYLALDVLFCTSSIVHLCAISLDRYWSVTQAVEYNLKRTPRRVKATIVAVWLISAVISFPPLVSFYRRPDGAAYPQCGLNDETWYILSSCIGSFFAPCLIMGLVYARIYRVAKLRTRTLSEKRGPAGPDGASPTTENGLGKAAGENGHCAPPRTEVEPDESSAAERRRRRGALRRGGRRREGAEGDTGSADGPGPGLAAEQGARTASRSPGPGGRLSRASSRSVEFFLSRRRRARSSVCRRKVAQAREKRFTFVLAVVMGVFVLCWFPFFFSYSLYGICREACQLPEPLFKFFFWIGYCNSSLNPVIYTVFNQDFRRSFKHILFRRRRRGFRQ
T1 sequence (P19328 whole entry): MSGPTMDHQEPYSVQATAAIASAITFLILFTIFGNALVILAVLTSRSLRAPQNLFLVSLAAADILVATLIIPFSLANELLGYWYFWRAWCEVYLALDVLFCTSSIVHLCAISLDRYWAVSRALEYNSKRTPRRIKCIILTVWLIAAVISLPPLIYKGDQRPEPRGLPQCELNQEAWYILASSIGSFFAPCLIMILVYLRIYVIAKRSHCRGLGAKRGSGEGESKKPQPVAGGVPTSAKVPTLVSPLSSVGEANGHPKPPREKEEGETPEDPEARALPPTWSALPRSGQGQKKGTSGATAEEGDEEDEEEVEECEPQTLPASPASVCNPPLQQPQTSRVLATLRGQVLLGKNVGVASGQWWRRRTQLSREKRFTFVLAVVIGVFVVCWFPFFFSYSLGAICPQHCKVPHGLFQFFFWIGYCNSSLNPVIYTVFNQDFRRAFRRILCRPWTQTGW
T1 sequence (P22909 whole entry): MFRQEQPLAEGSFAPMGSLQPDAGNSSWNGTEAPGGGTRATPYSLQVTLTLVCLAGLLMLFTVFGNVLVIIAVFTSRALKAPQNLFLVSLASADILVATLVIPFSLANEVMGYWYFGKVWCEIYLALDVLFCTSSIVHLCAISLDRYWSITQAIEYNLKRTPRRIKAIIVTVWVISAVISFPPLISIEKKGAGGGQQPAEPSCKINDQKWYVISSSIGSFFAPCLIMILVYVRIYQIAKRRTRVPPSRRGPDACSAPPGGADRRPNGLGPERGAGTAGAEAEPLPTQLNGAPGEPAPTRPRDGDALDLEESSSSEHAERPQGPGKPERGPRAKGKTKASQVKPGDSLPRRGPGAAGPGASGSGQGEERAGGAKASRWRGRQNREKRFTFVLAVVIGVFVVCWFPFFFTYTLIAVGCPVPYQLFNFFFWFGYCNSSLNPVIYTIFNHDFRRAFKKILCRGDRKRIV

[2] = biological target: T2, 5-hydroxytryptamine receptor 1A (Rattus norvegicus, UniProt P19327); assay: Binding affinity against 5-hydroxytryptamine 1A receptor in rat cerebral cortical membrane using [3H]-8-OH-DPAT as radioligand.; format: cell membranes
T2 sequence (P19327 whole entry): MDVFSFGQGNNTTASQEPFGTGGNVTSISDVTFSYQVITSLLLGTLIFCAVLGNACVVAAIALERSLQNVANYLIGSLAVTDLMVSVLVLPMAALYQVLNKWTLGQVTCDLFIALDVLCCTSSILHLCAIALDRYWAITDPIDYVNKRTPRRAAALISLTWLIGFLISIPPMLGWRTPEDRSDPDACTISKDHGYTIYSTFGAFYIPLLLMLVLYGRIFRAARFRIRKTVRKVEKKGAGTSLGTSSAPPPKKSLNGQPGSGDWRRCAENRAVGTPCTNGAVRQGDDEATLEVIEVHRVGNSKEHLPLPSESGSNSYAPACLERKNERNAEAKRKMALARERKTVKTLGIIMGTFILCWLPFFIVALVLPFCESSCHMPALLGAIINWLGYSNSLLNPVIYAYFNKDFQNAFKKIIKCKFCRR

Row | SMILES | Log Ki [1] | Ki [2] [nM]
1 | CN1CCc2ccc(Cl)c3c2C(CC3)C1 (stereo not given) | -6.8 | 25.1
2 | Br.CN1CCc2cccc3[nH]cc(c23)C1 | -6.3 | 100
3 | CN1CCc2ccc(Cl)c3c2C(CCC3)C1 (stereo not given) | -6 | 79.4
4 | CN1CCc2cccc3c2[C@H](CCC3)C1.Cl | -5.6 | 31.6
5 | C=CCN1CCc2c(OC)ccc3c2C(CCC3)C1.Cl (stereo not given) | -6 | 12.6
6 | CN1CCc2cccc3c2[C@@H](CCC3)C1.Cl | -6.4 | 63.1
7 | CN1CCc2cccc3c2C(CCC3)C1.Cl (stereo not given) | -5.9 | 50.1
8 | Br.CN1CCc2c(Cl)ccc3c2C(CC3)C1 (stereo not given) | -8.1 | 25.1
9 | Cl.c1cc2c3c(c1)CCNCC3CCC2 (stereo not given) | -5.9 | 200
10 | O=C1CC2(CCCC2)CC(=O)N1CCCCN1CCc2cccc(Cl)c2CC1 | – | 5.01
11 | Br.CN1CCc2cccc3c2C(CC3)C1 (stereo not given) | -6.6 | 15.8
12 | Br.COc1ccc2c3c1CCN(C)CC3CC2 (stereo not given) | -6.9 | 100
13 | CN1CCc2cccc3c2C(CCCC3)C1.Cl (stereo not given) | -5.9 | 398
14 | CCCN1CCc2cccc3c2C(CCC3)C1.Cl (stereo not given) | -6 | 50.1
15 | COc1ccc2c3c1CCN(C)CC3CCC2.Cl (stereo not given) | -6.8 | 25.1
16 | CN1CCc2c[nH]c3cccc(c23)C1.Cl | -6 | 1260
17 | CCN1CCc2cccc3c2C(CCC3)C1.Cl (stereo not given) | -6.2 | 50.1
18 | Cl.O=C1CC2(CCCC2)CC(=O)N1CCCCN1CCc2cccc3c2C(CCC3)C1 (stereo not given) | -5.9 | 39.8
19 | CN1CCc2ccc(Cl)c3c2[C@H](CCC3)C1 | -5.8 | 50.1
20 | CCN1CCc2c(Cl)ccc3c2C(CCC3)C1 (stereo not given) | -6.5 | 15.8

Row | SMILES | Log Ki [1] | Ki [2] [nM]
21 | CN1CCc2ccc(Cl)c3c2[C@@H](CCC3)C1 | -6.4 | 126
22 | Br.CN1CCc2c(Cl)ccc3[nH]cc(c23)C1 | -6.8 | 31.6
23 | Br.CN1CCc2ccc(Cl)c3c2C(CCCC3)C1 (stereo not given) | -6.2 | 5010
24 | COc1ccc2c3c1CN(C)CCC3CCC2.Cl (stereo not given) | -5.9 | 6310
25 | C=CCOc1ccc2c3c1CCN(C)CC3CCC2.Cl (stereo not given) | -7.5 | 631
26 | CCCN1CCc2c(Cl)ccc3c2C(CCC3)C1 (stereo not given) | -6.4 | 31.6
27 | CN1CCc2cccc(Cl)c2CC1 | -8.1 | 100
28 | CN1CCc2c(Cl)ccc3c2[C@@H](CCC3)C1 | -7 | 20
29 | O=C1CC2(CCCC2)CC(=O)N1CCCCN1CCc2c(Cl)ccc3c2C(CCC3)C1 (stereo not given) | -5.5 | 7.94
30 | CN1CCc2c(Cl)ccc3c2[C@H](CCC3)C1 | -6.6 | 6.31
31 | CN1CCc2c(Cl)ccc3c2C(CCCC3)C1 (stereo not given) | -6.5 | 79.4
32 | Cl.c1ccc(CCN2CCc3cccc4c3C(CCC4)C2)cc1 (stereo not given) | -6.2 | 794
33 | COc1ccc2c3c1CN(C)CC3CCC2.Cl (stereo not given) | -6.8 | 200
34 | COc1ccc2c3c1CCN(C)C3CCC2 (stereo not given) | – | 3160
35 | CN1CCc2c(O)ccc3c2C(CCC3)C1.Cl (stereo not given) | -6.2 | 316
36 | O=C1CC2(CCCC2)CC(=O)N1CCCCN1CCc2ccccc2CC1 | – | 25.1
37 | C=CCN1CCc2c(Cl)ccc3c2C(CCC3)C1 (stereo not given) | -6.1 | 7.94
38 | C=CCN1CCc2cccc3c2C(CCC3)C1.Cl (stereo not given) | -6.1 | 20
39 | CN1CCc2c(Cl)ccc3c2C(CCC3)C1 (stereo not given) | -6.9 | 10
